Assay results published in article PMC10354055, “An optimized Nurr1 agonist provides disease-modifying effects in Parkinson’s disease models” (Nature Communications, 2023).

Experiments:
HeLa cells = test: Autophagolysosome (APL) formation assay, mRFP-GFP-LC3, HeLa cells; format: cell-based; conditions: CQ 20 µM, 4A7C-301 1 µM; for percentage of red dots among total LC3 dots: EBSS 6 h; for APL formation / autophagy (in words): EBSS, BafA1 10 nM
Experimental: Nurr1 transactivity was normalized to β-galactosidase activity.
HeLa and N27-A cells were transfected with tandem mRFP-GFP-LC3 (Addgene) plasmid using Lipofectamine 2000 (Invitrogen) in 24-well plates. After 24 h, cells were incubated in starvation medium (Earle’s Balanced Salt Solution, EBSS; Lonza) containing bafilomycin A1 (BafA1, 10 nM), CQ (20 µM), or 4A7C-301 (1 µM) for 6 h and then fixed with 4% formaldehyde for fluorescence detection. Images were taken using a KEYENCE microscope and red (mRFP) LC3 dots and yellow (mRFP+GFP) LC3 dots were counted from three independent wells for each treatment group. 10 cells were randomly selected and counted from each well and a total of 30 cells were analyzed for each treatment group in both HeLa and N27-A cells.

MPTP-induced male mice = test: AIMs scoring (dyskinesia), MPTP-induced PD model mice; format: in vivo, mouse; conditions: for abnormal involuntary movements (AIMs) (in words): CQ 40, 4A7C-301 5, L-DOPA 50 mg/kg/day, i.p.; for AIMs score (20-140 min): Figure 4f, MPTP-induced mice, individual animal values
Experimental: Male C57BL/6 J mice (8–10 weeks, 25–30 g; Jackson Laboratories) were randomly assigned to 5 groups including vehicle (VEH), MPTP, MPTP + L-DOPA, MPTP + CQ and MPTP + 4A7C-301 (n ≥ 7 for each group). MPTP (Sigma-Aldrich) was intraperitoneally (i.p.) injected (30 mg/kg) for 5 days (Day 1-5). Different dosages of CQ (20, 40, and 80 mg/kg) and 4A7C-301 (1, 5, 20 mg/kg) were first tested to determine the effective dose window, then 40 and 5 mg/kg doses were finally selected for CQ and 4A7C-301 respectively to show the most prominent effects. CQ or 4A7C-301 was dissolved in PBS and administrated (i.p.) for 16 days starting with MPTP injection (Day 1-16). To test dyskinetic involuntary behavior, an L-DOPA injected group was included, which received 50 mg/kg of L-DOPA and 15 mg/kg of benserazide (Sigma-Aldrich) (i.p.) for 16 days (Day 1–16). All compounds were administered 6 h post-MPTP injection to avoid any effect of compounds on the MPTP metabolism in the brain. Motor and non-motor related behavior tests were performed on the following days as described in Fig. 4a in an assessor- and observer-blinded fashion. Pre-training and baseline setup for motor-related behaviors were performed 3 days prior to the injections. Mice were sacrificed and subjected to immunohistochemistry. Mice were housed at the Animal Care Facilities of McLean Hospital under a 12-h light/12-h dark cycle, ambient temperature and humidity. Animals were handled in accordance with McLean Hospital’s Institutional Animal Care and Use Committee (Protocol #: 2015N000002) and followed National Institutes of Health guidelines.
Abnormal involuntary movements (AIMs) were scored using the developed mouse dyskinesia rating scale as described in Sebastianutto et al.. Briefly, 4 mice were recorded simultaneously with a Swann HD Security System (B&H Photo-Video Inc.) for 2 min per session, every 20 min during the 140 min following drug injections (i.e., total 7 sessions), on every other or third day (Day 2, 4, 7, 9, 11, 13, and 16). Dyskinetic movements were scored for 3 subtypes of basic AIMs including axial, forelimb and orolingual AIMs, based on the severity scale from 0 to 4 which measures the duration of AIMs (0 = no dyskinesia; 1 = display dyskinesia for <50% of the observation time; 2 = display dyskinesia for >50% of the observation time; 3 = display dyskinesia for the entire observation period but ceased upon external stimuli; 4 = display continuous and unceasing dyskinesia). To get a better and more sensitive validation of mice dyskinesia, we included an amplitude AIMs score, which rates the degree of deviation of body part or muscle position from its resting position on a 0-4 scale as previously described. Finally, global AIMs score was calculated by multiplying basic AIMs and amplitude AIMs scores for each subtype on each session. Data points were plotted as the grand total of individual AIMs score on each testing day.

[1] = system: AAV-αSyn-induced male mice; test: Rotarod, AAV-αSyn-induced PD model mice; format: in vivo, mouse; conditions: αSynWT and αSynA53T mice; CQ 40, 4A7C-301 5 mg/kg/day i.p.
From the text: Adeno-associated viruses (AAVs) expressing GFP only or αSyn (wild-type or A53T) were kindly provided by Dr. Yoon Seong Kim from the University of Central Florida. Recombinant AAV vectors were produced using modified pAAV-IRES-hrGFP (Agilent) to express wild-type and mutant human αSyn under control of the CMV promoter. Viral particles (AAV2) were produced at the University of Iowa Viral Vector Core according to standard operating procedures (https://medicine.uiowa.edu/vectorcore/). […] AAV vectors were delivered into the substantia nigra unilaterally by stereotaxic surgery.
Mice were pre-trained on an automated 5-lane rotarod unit (10 rpm, 3 min) for 2 days and the baseline was measured (10 rpm, 90 sec) before the rotarod test (3 days before the MPTP injection or the first rotarod test at week 2). Rotarod measurements were performed using an accelerating protocol, accelerated smoothly from 2 to 30 rpm for 5 min. Time on the rotating rod was measured automatically by placing a trip switch under the floor beneath the rotating drum.

| SMILES | percentage of red dots among total LC3 dots (HeLa cells) | APL formation / autophagy (in words) (HeLa cells) | abnormal involuntary movements (AIMs) (in words) (MPTP-induced male mice) | AIMs score (20-140 min) (MPTP-induced male mice; day 2) | AIMs score (20-140 min) (MPTP-induced male mice; day 4) | AIMs score (20-140 min) (MPTP-induced male mice; day 7) | AIMs score (20-140 min) (MPTP-induced male mice; day 9) | AIMs score (20-140 min) (MPTP-induced male mice; day 11) | AIMs score (20-140 min) (MPTP-induced male mice; day 13) | AIMs score (20-140 min) (MPTP-induced male mice; day 16) | motor deficits, rotarod (latency to fall) (in words) [1] |
| --- | --- | --- | --- | --- | --- | --- | --- | --- | --- | --- | --- |
| CCN(CC)CCCC(C)Nc1ccnc2cc(Cl)ccc12 (stereo not shown) [CQ, chloroquine] | 21.7% | significantly inhibited | did not induce any detectable AIMs | 0 | 0 | 0 | 0 | 0 | 0 | 0 | partial recovery |
| CCN1CCN(c2cc(N3CCN(CC)CC3)nc(NCCNc3ccnc4cc(Cl)ccc34)n2)CC1 [4A7C-301, N^1-(4,6-bis(4-ethylpiperazin-1-yl)pyrimidin-2-yl)-N^2-(7-chloroquinolin-4-yl)ethane-1,2-diamine] | 63.9% | did not inhibit | did not induce any detectable AIMs | 0 | 0 | 0 | 0 | 0 | 0 | 0 | improved motor deficits |
